The source of these data is patent US20110195402A1, “SYSTEMS AND METHODS FOR DETECTING DRUG USE” (priority 2010, published 2011).

One experiment has as its system peroxidase. As to the kind of experiment: Peroxidase assay in saliva (Amplex Red). To be noted: test compound at 500 ppm, pooled or unpooled saliva, 30 minutes; FIGS. 26-29. It is filed as biochemical. The method, then:
To determine the effect of various GRAS compounds as inhibitors of peroxidase activity, a standard assay using Amplex® Red (Life Technologies), which releases a fluorescent oxidation product.
The test compounds, such as GRAS materials or cocktails of same, were prepared at a concentration of 500 ppm in distilled water. For the assay, 50 μl samples of test compounds were mixed with 20-30 μl of saliva (either “pooled” or “unpooled”) prior to the addition of Amplex® Red. […] Reactions were allowed to run for 30 minutes during these assays.

For a further experiment, the target named is T1, lysozyme (Homo sapiens, UniProt P61626).
T1 sequence (P61626 19-148): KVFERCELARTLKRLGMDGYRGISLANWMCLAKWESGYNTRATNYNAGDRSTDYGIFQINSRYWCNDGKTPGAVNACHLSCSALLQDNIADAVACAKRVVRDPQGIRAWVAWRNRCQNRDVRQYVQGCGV
Description: Lysozyme inhibition saliva screening (fluorescein-labeled Micrococcus lysodeikticus). It is filed as biochemical. The settings on record: 100% saliva samples (data not shown). The source says:
Further details of these five compounds may also be seen in Table 5.

In another experiment the target is T2, α-amylase (Homo sapiens, UniProt P0DUB6).
T2 sequence (P0DUB6 16-511): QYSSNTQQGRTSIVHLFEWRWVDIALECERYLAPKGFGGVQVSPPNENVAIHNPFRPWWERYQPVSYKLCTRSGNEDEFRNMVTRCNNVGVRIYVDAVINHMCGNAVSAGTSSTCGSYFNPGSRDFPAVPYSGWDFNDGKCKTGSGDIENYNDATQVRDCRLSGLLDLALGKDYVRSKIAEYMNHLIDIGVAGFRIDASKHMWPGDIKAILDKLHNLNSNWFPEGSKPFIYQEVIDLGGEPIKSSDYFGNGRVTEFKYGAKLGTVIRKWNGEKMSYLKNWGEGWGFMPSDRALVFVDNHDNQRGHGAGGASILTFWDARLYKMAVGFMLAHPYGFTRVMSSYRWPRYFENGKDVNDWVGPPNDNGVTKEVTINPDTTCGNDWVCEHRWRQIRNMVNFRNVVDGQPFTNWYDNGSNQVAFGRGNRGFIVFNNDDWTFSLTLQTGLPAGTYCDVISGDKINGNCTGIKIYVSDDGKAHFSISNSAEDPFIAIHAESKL
Description: α-Amylase inhibition saliva screening (2-chloro-p-nitrophenol-maltotriose substrate, 405 nm). It is filed as biochemical. To be noted: for Ave (reading, absorbance at 405 nm) / reading (absorbance at 405 nm), single replicates: test compound prepared at 5,000 ppm, 37° C., control column '100% Saliva'; for inhibition of α-Amylase: 100% saliva samples, FIG. 11; for α-Amylase Inhibitor Activity: dilute (3.5%) saliva, FIG. 10. The text has this:
Further details of these five compounds may also be seen in Table 4.

For another experiment, the system named is protease. To be noted: natural protease inhibitor; Table II; cited from earlier work.

Where “and” joins values, the source holds several entries; their conditions need not be identical. Equal values may be shown once.

With `Cn1c(=O)c2c(ncn2C)n(C)c1=O` [CDI-33, Caffeine], the peroxidase inhibition entry in the experiment on peroxidase was “significant peroxidase inhibition capabilities”.
On the same count and under the same terms, to `COc1ccc(O)c(C(C)(C)C)c1` [CDI-39, 3-tert--butyl-hydroxyanisole] belongs “significant peroxidase inhibition capabilities”.
For the molecule `O=C(O)c1ccccc1` [CDI-40, Benzoic acid], at lysozyme, the “inhibition of Lysozyme” value is “inhibit Lysozyme”.
“Aluminum potassium sulfate dodecahydrate [CDI-42]”: the “Ave (reading, absorbance at 405 nm)” value at α-amylase (0 min) came out at 0.92; on α-amylase (5 min), 1.85; at α-amylase (15 min), 2.29. Besides, the “reading (absorbance at 405 nm), single replicates” value at α-amylase (0 min) is 0.80 and 1.13 and 0.90 and 0.84; at α-amylase (5 min), 1.65 and 2.15 and 1.80 and 1.81; on α-amylase (15 min) it was 2.37 and 2.38 and 2.25 and 2.17. The “inhibition of α-Amylase” value at α-amylase is recorded as “inhibit α-Amylase”. Moreover, on α-amylase, the “α-Amylase Inhibitor Activity” value was “α-Amylase Inhibitor Activity”. Also, the peroxidase inhibition result in the experiment on peroxidase is “significant peroxidase inhibition capabilities”.
For Aluminum sulfate hydrate [CDI-34], the entries for the “Ave (reading, absorbance at 405 nm)” value on α-amylase (0 min), on α-amylase (5 min) and at α-amylase (15 min) were 0.40, 0.50 and 0.56, respectively. Besides, the “reading (absorbance at 405 nm), single replicates” value is 0.40 (2×) and 0.36 and 0.45 on α-amylase (0 min, sulfate hydrate); 0.49 and 0.50 (2×) and 0.52 on α-amylase (5 min, sulfate hydrate); 0.53 and 0.61 and 0.54 and 0.56 on α-amylase (15 min, sulfate hydrate). For the same molecule, the “inhibition of α-Amylase” value on α-amylase was “inhibit α-Amylase”. For the same molecule, the “α-Amylase Inhibitor Activity” value at α-amylase is “α-Amylase Inhibitor Activity”.

B1: Soybeans: primary soybean protease inhibitor, 20.7-22.3 kDa (protein, UniProt P01070 25-205, looked up)
Trypsin inhibitor A: DFVLDNEGNPLENGGTYYILSDITAFGGIRAAPTGNERCPLTVVQSRNELDKGIGTIISSPYRIRFIAEGHPLSLKFDSFAVIMLCVGIPTEWSVVEDLPEGPAVKIGENKDAMDGWFRLERVSDDEFNNYKLVFCPQQAEDDKCGDIGISIDHDDGTRRLVVSKNKPLVVQFQKLDKESL
For B1, the Inhibitory power in the experiment on protease is given as 1.2 times times weight.
